Assays:
VIOTR = assay: Pre-emergence herbicidal effect against VIOTR; assay type: in vivo, Viola tricolor; conditions: 320 g/ha, scored visually after 3 weeks vs untreated controls, 100% = plants have died
Source text: (§1) Seeds of monocotyledonous and dicotyledonous weed plants and crop plants are laid out in sandy loam soil in wood-fiber pots and covered with soil. The compounds of the invention, formulated in the form of wettable powders (WP) or as emulsion concentrates (EC), are then applied to the surface of the covering soil as aqueous suspension or emulsion at a water application rate equating to 600 to 800 L/ha with addition of 0.2% wetting agent.
(§2) After the treatment, the pots are placed in a greenhouse and kept under good growth conditions for the trial plants. The damage to the test plants is scored visually after a test period of 3 weeks by comparison with untreated controls (herbicidal activity in percent (%): 100% activity=the plants have died, 0% activity=like control plants).

ALOMY [1] = assay: Pre-emergence herbicidal effect against ALOMY; assay type: in vivo, Alopecurus myosuroides; conditions: 320 g/ha, scored visually after 3 weeks vs untreated controls, 100% = plants have died
Source text: as §1, §2

ECHCG [2] = assay: Post-emergence herbicidal effect against ECHCG; assay type: in vivo, Echinochloa crus-galli; conditions: one-leaf stage, 80 g/ha, assessed visually after about 3 weeks vs untreated controls, 100% = plants have died
Description: (§3) Seeds of monocotyledonous and dicotyledonous weed and crop plants are laid out in sandy loam soil in wood-fiber pots, covered with soil and cultivated in a greenhouse under good growth conditions. 2 to 3 weeks after sowing, the test plants are treated at the one-leaf stage. The compounds of the invention, formulated in the form of wettable powders (WP) or as emulsion concentrates (EC), are then sprayed onto the green parts of the plants as aqueous suspension or emulsion at a water application rate equating to 600 to 800 l/ha with addition of 0.2% wetting agent. After the test plants have been left to stand in the greenhouse under optimal growth conditions for about 3 weeks, the action of the preparations is assessed visually in comparison to untreated controls (herbicidal action in percent (%): 100% activity=the plants have died, 0% activity=like control plants).

ALOMY [3] = assay: Post-emergence herbicidal effect against ALOMY; assay type: in vivo, Alopecurus myosuroides; conditions: one-leaf stage, 80 g/ha, assessed visually after about 3 weeks vs untreated controls, 100% = plants have died
Description: as §3

LOLRI [4] = assay: Pre-emergence herbicidal effect against LOLRI; assay type: in vivo, Lolium rigidum; conditions: 320 g/ha, scored visually after 3 weeks vs untreated controls, 100% = plants have died
Source text: as §1, §2

DIGSA [5] = assay: Pre-emergence herbicidal effect against DIGSA; assay type: in vivo, Digitaria sanguinalis; conditions: 320 g/ha, scored visually after 3 weeks vs untreated controls, 100% = plants have died
Source text: as §1, §2

SETVI [6] = assay: Post-emergence herbicidal effect against SETVI; assay type: in vivo, Setaria viridis; conditions: one-leaf stage, 80 g/ha, assessed visually after about 3 weeks vs untreated controls, 100% = plants have died
Description: as §3

ECHCG [7] = assay: Pre-emergence herbicidal effect against ECHCG; assay type: in vivo, Echinochloa crus-galli; conditions: 320 g/ha, scored visually after 3 weeks vs untreated controls, 100% = plants have died
Source text: as §1, §2

SETVI [8] = assay: Pre-emergence herbicidal effect against SETVI; assay type: in vivo, Setaria viridis; conditions: 320 g/ha, scored visually after 3 weeks vs untreated controls, 100% = plants have died
Source text: as §1, §2

AVEFA [9] = assay: Pre-emergence herbicidal effect against AVEFA; assay type: in vivo, Avena fatua; conditions: 320 g/ha, scored visually after 3 weeks vs untreated controls, 100% = plants have died
Source text: as §1, §2

LOLRI [10] = assay: Post-emergence herbicidal effect against LOLRI; assay type: in vivo, Lolium rigidum; conditions: one-leaf stage, 80 g/ha, assessed visually after about 3 weeks vs untreated controls, 100% = plants have died
Description: as §3

DIGSA [11] = assay: Post-emergence herbicidal effect against DIGSA; assay type: in vivo, Digitaria sanguinalis; conditions: one-leaf stage, 80 g/ha, assessed visually after about 3 weeks vs untreated controls, 100% = plants have died
Description: as §3

AVEFA [12] = assay: Post-emergence herbicidal effect against AVEFA; assay type: in vivo, Avena fatua; conditions: one-leaf stage, 80 g/ha, assessed visually after about 3 weeks vs untreated controls, 100% = plants have died
Description: as §3

SMILES | Pre-emergence action [%] against VIOTR (VIOTR) [%] | Pre-emergence action [%] against ALOMY (ALOMY [1]) [%] | Post-emergence action [%] against ECHCG (ECHCG [2]) [%] | Post-emergence action [%] against ALOMY (ALOMY [3]) [%] | Pre-emergence action [%] against LOLRI (LOLRI [4]) [%] | Pre-emergence action [%] against DIGSA (DIGSA [5]) [%] | Post-emergence action [%] against SETVI (SETVI [6]) [%] | Pre-emergence action [%] against ECHCG (ECHCG [7]) [%] | Pre-emergence action [%] against SETVI (SETVI [8]) [%] | Pre-emergence action [%] against AVEFA (AVEFA [9]) [%] | Post-emergence action [%] against LOLRI (LOLRI [10]) [%] | Post-emergence action [%] against DIGSA (DIGSA [11]) [%] | Post-emergence action [%] against AVEFA (AVEFA [12]) [%]
CC#Cc1cc(C)c(C2=C(O)C3(CCCC(OCCC)C3)NC2=O)c(Br)c1 (stereo not drawn) [Example D5] | 100 | 100 | 100 | 100 | 100 | 100 | 100 | 100 | 100 | 100 | 100 | 100 | 100
CC#Cc1cc(C)c(C2=C(O)C3(CCCC(OCCOC)C3)NC2=O)c(Br)c1 (stereo not drawn) [Example D6] | 100 | 100 | 100 | 100 | 100 | 100 | 100 | 100 | 100 | 100 | 100 | 100 | 100
CC#Cc1cc(C)c(C2=C(O)C3(CCCC(OCC(C)C)C3)NC2=O)c(Cl)c1 (stereo not drawn) [Example D9] | 100 | 100 | 100 | 100 | 100 | 100 | 100 | 100 | 100 | 100 | 90 | 90 | 90
CC#Cc1cc(Br)c(C2=C(O)C3(CCCC(OCCOC)C3)NC2=O)c(C2CC2)c1 (stereo not drawn) [Example D11] | 100 | 100 | 100 | 100 | 100 | 100 | 100 | 100 | 100 | 100 | 100 | 100 | 
CC#Cc1cc(Cl)c(C2=C(O)C3(CCC(OCC)CC3)NC2=O)c(CC)c1 (stereo not drawn) [Example E12] | 100 | 90 | 100 |  | 100 | 100 | 100 | 100 | 100 | 90 |  |  | 
CC#Cc1cc(Cl)c(C2=C(O)C3(CCC(OC)CC3)NC2=O)c(CC)c1 (stereo not drawn) [Example E20] | 100 | 100 | 100 |  | 90 | 100 | 100 | 100 | 100 | 100 | 80 | 100 | 90
CC#Cc1cc(Cl)c(C2=C(O)C3(CCC(OC)CC3)NC2=O)c(C2CC2)c1 (stereo not drawn) [Example E24] | 100 | 100 | 100 | 100 | 100 | 100 | 100 | 100 | 100 | 100 | 100 |  | 100
CC#Cc1cc(Br)c(C2=C(O)C3(CCC(OC)CC3)NC2=O)c(CC)c1 (stereo not drawn) [Example E25] | 80 |  |  | 90 |  |  | 90 |  |  |  |  |  | 
CC#Cc1cc(Br)c(C2=C(O)C3(CCC(OC)CC3)NC2=O)c(C2CC2)c1 (stereo not drawn) [Example E26] | 90 | 100 | 100 | 100 | 100 | 100 | 100 | 100 | 100 | 90 | 100 | 100 | 
CC#Cc1cc(Cl)c(C2=C(OC(=O)OC)C3(CCC(OC)CC3)NC2=O)c(CC)c1 (stereo not drawn) [Example P24] |  | 100 | 100 | 100 | 100 | 100 | 100 | 90 | 100 | 100 |  | 90 | 90
CC#Cc1cc(C)c(C2=C(OC(=O)OCC)C3(CCCC(OCCOC)C3)NC2=O)c(Br)c1 (stereo not drawn) [Example Q4] |  | 100 | 100 | 100 | 100 | 100 | 100 | 100 | 100 | 100 | 100 |  | 90
CC#Cc1cc(C)c(C2=C(OC(=O)OC)C3(CCCC(OCC(C)C)C3)NC2=O)c(Cl)c1 (stereo not drawn) [Example Q6] |  | 100 | 100 | 100 | 100 | 100 | 100 | 100 | 100 | 90 | 100 | 100 | 100
CC#Cc1cc(C)c(C2=C(OC(=O)OCC)C3(CCCC(OCC(C)C)C3)NC2=O)c(Cl)c1 (stereo not drawn) [Example Q8] |  | 100 | 100 | 100 | 100 | 100 | 100 | 100 | 100 | 100 | 90 |  | 100

Reference: patent US20220151230A1, “SPECIFICALLY SUBSTITUTED 3-(2-HALOGEN-6-ALKYL-4-PROPINYLPHENYL)-3-PYRROLIN-2-ONES AND TO THE USE THEREOF AS HERBICIDES” (Bayer Aktiengesellschaft, priority 2019, published 2022)
